Experimental data as given in patent publication US9994547B2, “Heteroarylamide inhibitors of TBK1” (Takeda Pharmaceutical Company Limited, priority 2014, dated 2018).

molecular target: Full length human TBK1 (Homo sapiens (Human), UniProt Q9UHD2); test: Inhibition of TBK1 Enzyme (Example A); type: biochemical; conditions: -log(IC50), IC50 molar; 3 nM TBK1, 25 μM ATP, 60 min RT
In short: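 Full-length N-His human TBK1 from Sf9 baculovirus was tested with 11-point 2.5-fold dilutions (1% DMSO) in Hepes pH 7.4, MgCl2, EDTA, Brij, DTT. After 60 min RT and EDTA quench, microfluidic conversion was fitted and reported as pIC50.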

Full length human TBK1, sequence (Q9UHD2 whole entry): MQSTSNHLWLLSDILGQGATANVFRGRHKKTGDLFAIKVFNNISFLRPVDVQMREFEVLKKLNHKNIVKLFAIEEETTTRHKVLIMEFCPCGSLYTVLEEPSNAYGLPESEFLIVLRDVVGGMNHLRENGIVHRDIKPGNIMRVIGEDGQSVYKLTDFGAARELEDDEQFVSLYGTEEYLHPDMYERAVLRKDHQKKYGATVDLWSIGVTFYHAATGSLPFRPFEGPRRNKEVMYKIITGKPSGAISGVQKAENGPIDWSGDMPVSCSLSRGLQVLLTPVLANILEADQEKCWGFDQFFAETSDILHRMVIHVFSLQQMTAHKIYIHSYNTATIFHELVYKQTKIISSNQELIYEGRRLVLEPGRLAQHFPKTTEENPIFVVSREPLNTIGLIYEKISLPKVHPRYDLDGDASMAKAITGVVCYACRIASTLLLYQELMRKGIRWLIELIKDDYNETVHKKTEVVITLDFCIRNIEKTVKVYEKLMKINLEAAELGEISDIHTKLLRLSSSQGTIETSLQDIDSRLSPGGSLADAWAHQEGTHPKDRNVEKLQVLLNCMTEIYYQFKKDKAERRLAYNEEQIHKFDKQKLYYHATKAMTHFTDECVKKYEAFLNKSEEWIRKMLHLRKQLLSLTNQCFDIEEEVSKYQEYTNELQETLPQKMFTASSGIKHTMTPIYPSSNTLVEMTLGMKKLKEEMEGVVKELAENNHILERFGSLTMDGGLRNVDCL

| TBK1 Inhibition (pIC50) | Compound |
| --- | --- |
| 8.1 | C[C@H](Nc1cc(-c2cnc(NC(=O)C3CC3)cn2)ccc1C#N)C(=O)N(C)C [Example 1, (S)-N-(5-(4-cyano-3-((1-(dimethylamino)-1-oxopropan-2-yl)amino)phenyl)pyrazin-2-yl)cyclopropanecarboxamide] |
| 6.2 | CN(C)C(=O)C(CC(F)(F)F)Nc1cc(-c2cnc(NC(=O)C3CC3)cn2)cnc1C#N (centres unmarked) [Example 138, N-(5-(6-cyano-5-((1-(dimethylamino)-4,4,4-trifluoro-1-oxobutan-2-yl)amino)pyridin-3-yl)pyrazin-2-yl)cyclopropanecarboxamide] |
| 7.7 | C[C@H](Nc1cc(-c2cnc(NC(=O)C3CC3)cn2)cnc1C#N)C(=O)N1CC[C@H](F)C1 [Example 139, N-(5-(6-cyano-5-(((S)-1-((S)-3-fluoropyrrolidin-1-yl)-1-oxopropan-2-yl)amino)pyridin-3-yl)pyrazin-2-yl)cyclopropanecarboxamide] |
| 7.0 | N#Cc1ncc(-c2cnc(NC(=O)C3CC3)cn2)cc1NCC(=O)N1CCS(=O)(=O)C1 [Example 140, N-(5-(6-cyano-5-((2-(1,1-dioxidothiazolidin-3-yl)-2-oxoethyl)amino)pyridin-3-yl)pyrazin-2-yl)cyclopropanecarboxamide] |
| 8.3 | N#Cc1ncc(-c2cnc(NC(=O)C3CC3)cn2)cc1NCC(=O)N1CCC[C@@H]1C(F)F [Example 141, (R)-N-(5-(6-cyano-5-((2-(2-(difluoromethyl)pyrrolidin-1-yl)-2-oxoethyl)amino)pyridin-3-yl)pyrazin-2-yl)cyclopropanecarboxamide] |
| 7.0 | N#Cc1ncc(-c2cnc(NC(=O)C3CC3)cn2)cc1NCC(=O)N1CCCC1CF (centres unmarked) [Example 143, N-(5-(6-cyano-5-((2-(2-(fluoromethyl)pyrrolidin-1-yl)-2-oxoethyl)amino)pyridin-3-yl)pyrazin-2-yl)cyclopropanecarboxamide] |
| 5.6 | CC1CC1C(=O)Nc1cnc(-c2cnc(C#N)c(NCC(N)=O)c2)cn1 (centres unmarked) [Example 144, N-(5-(5-((2-amino-2-oxoethyl)amino)-6-cyanopyridin-3-yl)pyrazin-2-yl)-2-methylcyclopropanecarboxamide] |
| 7.1 | CC1CC1C(=O)Nc1cnc(-c2cnc(C#N)c(NCC(=O)N(C)C)c2)cn1 (centres unmarked) [Example 145, N-(5-(6-cyano-5-((2-(dimethylamino)-2-oxoethyl)amino)pyridin-3-yl)pyrazin-2-yl)-2-methylcyclopropanecarboxamide] |
| 8.1 | C[C@H](Nc1cc(-c2cnc(NC(=O)C3CC3CO)cn2)cnc1C#N)C(=O)N(C)CC(F)F (stereo partly drawn) [Example 146, N-(5-(6-cyano-5-(((S)-1-((2,2-difluoroethyl)(methyl)amino)-1-oxopropan-2-yl)amino)pyridin-3-yl)pyrazin-2-yl)-2-(hydroxymethyl)cyclopropanecarboxamide] |

same assay, conditions: -log(IC50), IC50 molar; 3 nM TBK1, 25 μM ATP, 60 min RT; read-out: TBK1 Inhibition (pIC50) (converted)

| IC50 [nM] | Compound |
| --- | --- |
| 398 | CC[C@H](Nc1cc(-c2cnc(NC(=O)C3CC(C)(O)C3)cn2)cnc1C#N)C(=O)N(C)C (stereo partly drawn) [Example 147, (S)-N-(5-(6-cyano-5-((1-(dimethylamino)-1-oxobutan-2-yl)amino)pyridin-3-yl)pyrazin-2-yl)-3-hydroxy-3-methylcyclobutanecarboxamide] |

test system: C57/BL6 mice; test: Inhibition of ConA Induced Hepatitis (Example B); type: in vivo; conditions: Mus musculus; oral, 1 hr before ConA 15 mg/kg i.v.; plasma ALT post 8-24 hrs; read-out: ED50 (amount of test compound that reduces ConA induced increase in plasma ALT level by 50%)
Description: Orally administer compound into normal C57/BL6 mice at several doses. After 1 hr, inject i.v. with ConA 15 mg/kg, (N=5). Post 8-24 hrs, collect plasma and liver. Measure plasma ALT enzyme level. An ED50 is determined as the amount of test compound that reduces ConA induced increase in plasma ALT level by 50%.

| Compound | ED50 [mg/kg] |
| --- | --- |
| C[C@H](Nc1cc(-c2cnc(NC(=O)C3CC3)cn2)ccc1C#N)C(=O)N(C)C [Example 1, (S)-N-(5-(4-cyano-3-((1-(dimethylamino)-1-oxopropan-2-yl)amino)phenyl)pyrazin-2-yl)cyclopropanecarboxamide] | 5 |
